Data published in patent US20250214925A1, “CATIONIC LIPID, LIPOSOME, LIPID NANOPARTICLE, AND USE” (CARCELL BIOPHARMA LTD., priority 2022, published 2025).

Experiments:
[1] = LNP size and PDI by dynamic laser light scattering; type: physicochemical; conditions: LNP: 50% cationic lipid, 38.5% cholesterol, 10% DSPC, 1.5% DMG-PEG2000; Ffluc mRNA
Summary of the method: (§1)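 LNPs of cationic lipid/cholesterol/DSPC/DMG-PEG2000 at 50/38.5/10/1.5 mol% in ethanol, mixed with Ffluc mRNA at 0.2 mg/mL in 10 mM pH 4.0 citrate via T-mixer at 40 mL/min. Dialyzed overnight against 50 mM Tris-buffered saline pH 7.4 and sieved; PDI by dynamic light scattering, encapsulation by Ribogreen.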

[2] = mRNA encapsulation efficiency of LNP by Ribogreen assay; type: physicochemical; conditions: LNP: 50% cationic lipid, 38.5% cholesterol, 10% DSPC, 1.5% DMG-PEG2000; Ffluc mRNA
Summary of the method: as §1

mice [3] = assay: In vivo delivery of Ffluc mRNA LNP in mice, intramuscular administration, luminescence relative to MC3; design: species or system mice (female Balb/C); conditions: fold change in luminescence intensity relative to MC3; 50 μL of 0.1 mg/mL mRNA LNP into right thigh; 6 h after injection
Description: The prepared encapsulation solution was applied to mice in the following manner, and its delivery efficiency in mice was tested. Among them, DLin-MC3-DMA (MC3) was a cationic liposome for delivering small nucleic acids that was approved by the FDA for marketing in 2018, which has high nucleic acid drug delivery efficiency and biosafety, and was usually used as the industry gold standard in the screening process of cationic lipids. In the evaluation of mice experiments, the ratio of nucleic acid delivery efficiency normalized to MC3 was greater than 0.1, which was considered to be a cationic lipid with high delivery efficiency.
The LNP solution was diluted with 50 mM TBS, pH 7.4 to a concentration of 0.1 mg/mL mRNA.
2. The mice involved in this study were female Balb/C, weighing 18-22 g, 6-8 weeks old, with 5 mice in each group.
3. The dosing solution was kept at 4° C. prior to injection.
4. 50 μL of LNP solution was injected into the right thigh of the mice.
5. The mice were injected intraperitoneally with 200 μL of 1.5 mg/mL D-luciferin solution 6 h after injection.
6. The in vivo luminescence images of the mice were obtained using the IVIS system (Aniview).
7. The luminescence intensity of each mice was measured using Aniview software.
8. MC3 lipid nanoparticles were used as a positive control. The in vivo efficacy of each cationic lipid tested was recorded as the fold change in luminescence intensity relative to MC3 (ratio normalized to MC3).

mice [4] = assay: In vivo delivery of Ffluc mRNA LNP in mice, intravenous administration, luminescence relative to MC3; design: species or system mice (female Balb/C); conditions: fold change in luminescence intensity relative to MC3; 0.06 mg/kg tail vein; 6 h after injection
Summary of the method: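 Female Balb/C mice (18-22 g, 6-8 weeks, n=5) received Ffluc mRNA LNP at 0.06 mg/kg by tail vein in 50 mM TBS pH 7.4. Six hours later, intraperitoneal D-luciferin was given and whole-body luminescence imaged, with each lipid reported as fold change relative to MC3 LNP.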

Structure (SMILES)	PDI [1]	Size (nm) [1]	Encapsulation Rate [2]	In Vivo Efficacy Normalized To Mc3 In Mice (Intramuscular Injection) (mice [3])	In Vivo Efficacy Normalized To Mc3 In Mice (Intravenous Injection) (mice [4])
CCCCCCCC/C(=C/C(=O)OCCCCCCCCN(CCCO)CCCCCCCCOC(=O)/C=C(\CCCCC)CCCCCCCC)CCCCC [CPL-113-01, ((3-hydroxypropyl)azanediyl)bis(octane-8,1-diyl) (2E,2′E)-bis(3-pentylundec-2-enoate)]	0.24	97.7 nm	96%	1.65	2.52
CCCCC/C(=C/C(=O)OCCCCCCCCCN(CCCO)CCCCCCCCCOC(=O)/C=C(\CCCC)CCCCC)CCCC [CPL-133-01, ((3-hydroxypropyl)azanediyl)bis(nonane-9,1-diyl) (2E,2′E)-bis(3-butyloct-2-enoate)]	0.0569	80.25 nm	97%	6.61	3.54
CCCCCC/C(=C/C(=O)OCCCCCCCCCCCN(CCCO)CCCCCCCCCCCOC(=O)/C=C(\CCCC)CCCCCC)CCCC [CPL-174-01, ((3-hydroxypropyl)azanediyl)bis(undecane-11,1-diyl) (2E,2′E)-bis(3-butylnon-2-enoate)]	0.18	112 nm	97%	1.20	2.32
CCCCCCCCCC/C(=C/C(=O)OCCCCCCCCCCCN(CCCO)CCCCCCCCCCCOC(=O)/C=C(\CCCCC)CCCCCCCCCC)CCCCC [CPL-180-01, ((3-hydroxypropyl)azanediyl)bis(undecane-11,1-diyl) (2E,2′E)-bis(3-pentyltridec-2-enoate)]	0.1334	66.8 nm	86%	0.72	9.31
CCCCCC/C(=C/C(=O)OCCCCCCCCN(CCCO)CCCCCCCCOC(=O)/C=C(\CCCC)CCCCCC)CCCC [CPL-456-01, ((3-hydroxypropyl)azanediyl)bis(octane-8,1-diyl) (2E,2′E)-bis(3-butylnon-2-enoate)]	0.1225	70.36 nm	85%	5.51	7.36
CCCCCC/C(=C/C(=O)OCCCCCCCCN(CCCCO)CCCCCCCCOC(=O)/C=C(\CCCC)CCCCCC)CCCC [CPL-457-01, ((4-hydroxybutyl)azanediyl)bis(octane-8,1-diyl) (2E,2′E)-bis(3-butylnon-2-enoate)]	0.078	73 nm	90%	12.13	5.49

Second part, led by results:

PDI [1]	Size (nm) [1]	Encapsulation Rate [2]	Structure (SMILES)	In Vivo Efficacy Normalized To Mc3 In Mice (Intramuscular Injection) (mice [3])	In Vivo Efficacy Normalized To Mc3 In Mice (Intravenous Injection) (mice [4])
0.0486	94.43 nm	92%	CCCCCCCC/C(=C/C(=O)OCCCCCCCCCN(CCCO)CCCCCCCCCOC(=O)/C=C(\CCC)CCCCCCCC)CCC [CPL-127, ((3-hydroxypropyl)azanediyl)bis(nonane-9,1-diyl) (2E,2′E)-bis(3-propylundec-2-enoate)]	2.37	2.54
0.2	92.9 nm	98%	CCCCCCCCCC/C(=C\C(=O)OCCCCCCCCCN(CCCO)CCCCCCCCCOC(=O)/C=C(\CCCCC)CCCCCCCCCC)CCCCC [CPL-136]	1.61	2.81
0.1437	90.31 nm	93%	CCCCCC/C(=C/C(=O)OCCCCCCCCCCN(CCCO)CCCCCCCCCCOC(=O)/C=C(\CCC)CCCCCC)CCC [CPL-148, ((3-hydroxypropyl)azanediyl)bis(decane-10,1-diyl) (2E,2′E)-bis(3-propylnon-2-enoate)]	2.56	2.15
0.05	72.18 nm	95%	CCCCCC/C(=C\C(=O)OCCCCCCCCCCN(CCCO)CCCCCCCCCCOC(=O)/C=C(/CCCC)CCCCCC)CCCC [CPL-152, ((3-hydroxypropyl)azanediyl)bis(decane-10,1-diyl) (2Z,2′Z)-bis(3-butylnon-2-enoate)]	2.62	2.03
